{"source": "patent US10543189B2", "about": "“2-acetylnaphtho[2,3-b]furan -4,9-dione for use on treating cancer” (Boston Biomedical, Inc., priority 2013, dated 2020)", "key": {"β-catenin": {"tested_on": "β-catenin", "experiment": "Immunohistochemistry of CRC patient tumor tissue for β-catenin", "type": "in vivo, human", "settings": "FIG. 4A", "experimental": "CRC patient's archival tumor tissue samples were analyzed through immunohistochemistry (IHC) using labeled antibodies against β-catenin. […] For instance, close to 40% of the patients with high nuclear β-catenin levels before treatment survived longer than 100 weeks whereas none of those with high levels of membranous β-catenin survived beyond 25 weeks. This further confirms that the Compound of the Invention disrupts or somehow modulates the β-catenin function, and that the β-catenin pathway is implicated in colorectal cancers."}, "CD44^high cells (FaDu)": {"tested_on": "CD44^high cells (FaDu)", "experiment": "CD44high sphere growth", "type": "cell-based", "settings": "FACS-isolated from FaDu, sphere culture, five days of treatment, FIG. 5", "experimental": "CD44^high cells were isolated by FACS (FaDu) and were cultured in the absence of attachment and serum for 5 days to form primary spheres. Primary spheres were then dissociated in Accumax (eBioscience, San Diego, Calif.) to single cells, and were cultured as above for 72 hours before the addition of the indicated concentrations of therapeutic agents. After five days of treatment, representative sphere images were captured.\nCD44^high cells were isolated by FACS (FaDu) and their growth was blocked by a Compound of the Invention (FIG. 5)."}, "panel of cancer cells": {"tested_on": "panel of cancer cells", "experiment": "In vitro screening of a panel of cancer cells", "type": "cell-based", "text": "Understanding the clinical relevance of the cancer stemness markers and identifying their predictive response to the Compound of the Invention is used herein to assist clinical development by selecting patients that will most likely to derive clinical benefit. In some embodiments, the methods provided herein use one or more well-known cancer stemness marker(s), such as, for example, the expression of p-STAT3 and/or other cancer stem cell related proteins such as β-catenin and NANOG. All these proteins can be easily detected using any of a variety of art-recognized techniques. In some embodiments, the cancer sternness marker is detected with immunohistochemistry with antibodies. Using the archival tissue samples collected from the phase I trial with the Compound of the Invention, the patient response to the Compound of the Invention was analyzed based on biomarker status. […] A significant improvement in survival was detected for patients with nuclear β-Catenin localization compared with patients having β-catenin localized to the cell membrane, HR=0.043, p value <0.001. As further evidence, in an in vitro study screening a panel of cancer cells, the cell lines with nuclear β-Catenin show a lower IC50 for the Compound of the Invention. […] Thus, STAT3 activation is involved in nuclear β-catenin regulation. […]"}}, "data": [{"smiles": "CC(=O)c1cc2c(o1)C(=O)c1ccccc1C2=O", "note": "[Compound 1, 2-acetylnaphtho[2,3-b]furan-4,9-dione]", "values": [{"measurement": "accumulation of β-catenin in cell nucleus in tumor tissues (IHC)", "setting": "β-catenin", "result": "effective in removing or preventing the accumulation of β-catenin in cell nucleus"}, {"measurement": "CD44^high cells growth", "setting": "CD44^high cells (FaDu)", "result": "blocked"}, {"measurement": "IC50 in cell lines with nuclear β-Catenin", "setting": "panel of cancer cells", "result": "lower IC50"}]}]}
